From ChEMBL document CHEMBL5053551, “Structure-Based Design of Dual Partial Peroxisome Proliferator-Activated Receptor γ Agonists/Soluble Epoxide Hydrolase Inhibitors” (J Med Chem, 2021)
Calls of active or inactive are those of the source. The calls are words filed in the database; no cut-off is given here.

Assays:
[1] = target: T1, Bifunctional epoxide hydrolase 2 (Homo sapiens, UniProt P34913); test: Inhibition of recombinant human full length sEH assessed as reduction in 6-methoxy-2-naphthaldehyde formation using PHOME as substrate preincubated for 30 to 45 mins followed by substrate addition and measured after 30 to 45 mins by fluorescence assay
T1 sequence (P34913 whole entry): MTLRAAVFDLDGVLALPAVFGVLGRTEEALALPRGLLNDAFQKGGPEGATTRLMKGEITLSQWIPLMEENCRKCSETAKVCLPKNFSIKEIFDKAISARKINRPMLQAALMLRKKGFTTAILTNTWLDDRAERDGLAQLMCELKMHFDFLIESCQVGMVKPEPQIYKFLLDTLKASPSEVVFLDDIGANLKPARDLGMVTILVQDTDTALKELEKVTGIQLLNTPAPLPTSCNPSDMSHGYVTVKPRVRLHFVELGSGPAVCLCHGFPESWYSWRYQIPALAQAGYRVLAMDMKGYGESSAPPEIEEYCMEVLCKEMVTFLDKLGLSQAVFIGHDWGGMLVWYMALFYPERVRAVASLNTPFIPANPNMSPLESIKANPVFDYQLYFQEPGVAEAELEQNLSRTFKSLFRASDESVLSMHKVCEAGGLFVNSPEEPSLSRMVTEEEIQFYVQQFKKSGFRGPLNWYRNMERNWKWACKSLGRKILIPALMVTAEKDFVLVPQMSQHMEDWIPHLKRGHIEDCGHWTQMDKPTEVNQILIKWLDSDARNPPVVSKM

[2] = target: T2, Peroxisome proliferator-activated receptor gamma (Homo sapiens, UniProt P37231); test: Partial agonist activity at GAL4-tagged human PPARgamma LBD expressed in HEK293T cells incubated for 12 to 14 hrs by dual-Glo luciferase assay; format: cell-based
T2 sequence (P37231 whole entry): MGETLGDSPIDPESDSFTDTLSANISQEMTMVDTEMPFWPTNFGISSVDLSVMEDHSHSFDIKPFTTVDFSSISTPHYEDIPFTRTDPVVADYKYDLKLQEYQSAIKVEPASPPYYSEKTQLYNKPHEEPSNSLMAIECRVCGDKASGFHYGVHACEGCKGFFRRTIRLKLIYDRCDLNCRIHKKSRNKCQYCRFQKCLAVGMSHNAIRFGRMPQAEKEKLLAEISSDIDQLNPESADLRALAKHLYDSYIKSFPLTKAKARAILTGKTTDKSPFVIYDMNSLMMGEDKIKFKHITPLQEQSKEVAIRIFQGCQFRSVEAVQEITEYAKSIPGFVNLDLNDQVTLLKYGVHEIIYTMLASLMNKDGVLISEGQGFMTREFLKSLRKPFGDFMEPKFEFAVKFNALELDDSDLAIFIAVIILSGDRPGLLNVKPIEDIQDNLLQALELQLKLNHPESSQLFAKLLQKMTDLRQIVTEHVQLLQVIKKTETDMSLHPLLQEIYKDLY

[3] = target: T3, Peroxisome proliferator-activated receptor gamma (Homo sapiens) (UniProt P37231); test: Partial agonist activity at GAL4-tagged human PPARgamma LBD expressed in HEK293T cells at 10 uM incubated for 12 to 14 hrs by dual-Glo luciferase assay; format: cell-based; settings: time 12-14 hrs
T3 sequence (whole entry): T2 sequence (P37231 whole entry)

[4] = Stability of compound in Sprague-Dawley rat liver microsomes assessed as half life at 10 uM preincubated for 5 mins in presence of NADPH regenerating system followed by microsomal addition and measured upto 60 mins by HPLC analysis; format: ADME, Microsome; settings: time 65 min
[5] = Stability of compound in BALB/c mouse liver microsomes assessed as half life at 10 uM preincubated for 5 mins in presence of NADPH regenerating system followed by microsomal addition and measured upto 60 mins by HPLC analysis; format: ADME, Microsome; settings: time 65 min
[6] = Stability of compound in human liver microsomes assessed as half life at 10 uM preincubated for 5 mins in presence of NADPH regenerating system followed by microsomal addition and measured upto 60 mins by HPLC analysis; format: ADME, Microsome; settings: time 65 min

| IC50 [1] [nM] | EC50 [2] [nM] | SMILES | further results |
| --- | --- | --- | --- |
| 310 | 850 | COc1ccc(CNC(=O)c2ccc3c(ccn3Cc3cccc(F)c3)c2)c(C(F)(F)F)c1 | – |
| 28 | – | COc1ccc(CNC(=O)c2ccc3c(c2)[nH]c(=O)n3Cc2ccccc2)c(C(F)(F)F)c1 | – |
| 5 | – | O=C(NCc1ccc(NC(=O)C(F)(F)F)cc1C(F)(F)F)c1ccc2c(ccn2Cc2cccc(F)c2)c1 | – |
| 2 | 1050 | CC(C)S(=O)(=O)n1ccc2cc(C(=O)NCc3ccc(NS(=O)(=O)C4CC4)cc3C(F)(F)F)ccc21 | – |
| 456 | – | O=C(NCc1ccccc1C(F)(F)F)c1ccc2c(c1)[nH]c(=O)n2Cc1ccccn1 | Activity [3]: inactive |
| 1090 | – | O=C(NCc1ccccc1C(F)(F)F)c1ccc2c(c1)[nH]c(=O)n2Cc1ccc(Cl)c(Cl)c1 | – |
| 82 | – | O=C(NCc1ccccc1C(F)(F)F)c1ccc2c(c1)[nH]c(=O)n2Cc1ccccc1 | – |
| 48 | – | O=C(NCc1ccccc1C(F)(F)F)c1ccc2c(c1)[nH]c(=O)n2Cc1cc(F)cc(F)c1 | – |
| 3 | 370 | CCS(=O)(=O)Nc1ccc(CNC(=O)c2ccc3c(ccn3Cc3cccc(F)c3)c2)c(C(F)(F)F)c1 | – |
| 5 | 490 | CC(C)n1ccc2cc(C(=O)NCc3ccc(NS(=O)(=O)C4CC4)cc3C(F)(F)F)ccc21 | – |
| 304 | – | O=C(NCc1ccccc1C(F)(F)F)c1ccc2c(c1)[nH]c(=O)n2Cc1ccccc1C(F)(F)F | – |
| 319 | – | COc1ccccc1Cn1c(=O)[nH]c2cc(C(=O)NCc3ccccc3C(F)(F)F)ccc21 | Activity [3]: inactive |
| 153 | 120 | O=C(NCc1ccccc1C(F)(F)F)c1ccc2c(c1)[nH]c(=O)n2Cc1cccc(F)c1 | – |
| 142 | – | O=C(NCc1ccccc1C(F)(F)F)c1ccc2c(c1)[nH]c(=O)n2Cc1ccc(F)cc1 | Activity [3]: inactive |
| 107 | – | O=C(NCc1ccccc1C(F)(F)F)c1ccc2c(c1)ncn2Cc1cccc(F)c1 | – |
| 28 | – | CN(C)CCn1ccc2cc(C(=O)NCc3ccc(NS(=O)(=O)C4CC4)cc3C(F)(F)F)ccc21 | Activity [3]: inactive |

| IC50 [1] [nM] | EC50 [2] [nM] | SMILES | further results |
| --- | --- | --- | --- |
| 87 | – | O=C(NCc1ccccc1C(F)(F)F)c1ccc2c(c1)[nH]c(=O)n2Cc1cccc(Cl)c1 | – |
| 171 | – | O=C(NCc1ccccc1C(F)(F)F)c1ccc2c(c1)[nH]c(=O)n2Cc1ccccc1Cl | – |
| 29 | 1480 | O=C(NCc1ccc(NS(=O)(=O)C2CC2)cc1C(F)(F)F)c1ccc2[nH]ccc2c1 | – |
| 29 | – | COc1ccc(CNC(=O)c2ccc3c(c2)[nH]c(=O)n3Cc2cccc(F)c2)c(C(F)(F)F)c1 | – |
| 6 | 1350 | CS(=O)(=O)Cc1ccc(CNC(=O)c2ccc3c(ccn3Cc3cccc(F)c3)c2)c(C(F)(F)F)c1 | – |
| 7 | – | Nc1ccc(CNC(=O)c2ccc3c(ccn3Cc3cccc(F)c3)c2)c(C(F)(F)F)c1 | – |
| 40 | – | COc1ccc(CNC(=O)c2ccc3c(c2)ncn3Cc2cccc(F)c2)c(C(F)(F)F)c1 | – |
| 322 | – | O=C(NCc1ccccc1C(F)(F)F)c1ccc2c(c1)[nH]c(=O)n2CC1CCCCC1 | – |
| 36 | 1600 | O=C(NCc1ccccc1C(F)(F)F)c1ccc2c(cnn2Cc2cccc(F)c2)c1 | – |
| 321 | – | O=C(NCc1ccccc1C(F)(F)F)c1ccc2c(ccn2Cc2cccc(F)c2)c1 | – |
| 100 | – | O=C(NCc1ccccc1C(F)(F)F)c1ccc2c(c1)[nH]c(=O)n2Cc1ccc(Cl)cc1Cl | Activity [3]: inactive |
| 2 | – | CC(C)Cn1ccc2cc(C(=O)NCc3ccc(NS(=O)(=O)C4CC4)cc3C(F)(F)F)ccc21 | half-life at 10 µM [4]: 41 min; half-life at 10 µM [5]: 53 min; half-life at 10 µM [6]: 76 min |
| 197 | – | O=C(NCc1ccccc1C(F)(F)F)c1ccc2c(c1)[nH]c(=O)n2Cc1ccc(Cl)cc1 | Activity [3]: inactive |
| 22 | 1590 | COc1ccc(CNC(=O)c2ccc3c(cnn3Cc3cccc(F)c3)c2)c(C(F)(F)F)c1 | – |
| 55 | – | O=C(NCc1ccccc1C(F)(F)F)c1ccc2c(c1)[nH]c(=O)n2Cc1ccccc1F | Activity [3]: inactive |
| 6 | 1430 | CSCc1ccc(CNC(=O)c2ccc3c(ccn3Cc3cccc(F)c3)c2)c(C(F)(F)F)c1 | – |
